Tests used:
[1] = molecular target: T1, adenosine A2 receptor (Rattus norvegicus, UniProt P30543); test: Adenosine Receptor Binding--A2 Receptor Affinity (RBA2), [3H]NECA; parameters: species or system rat (Sprague-Dawley or Long-Evans, striatum)
T1 construct: 5 mg original tissue weight of rat weight of rat striatal membranes; tissue Pel-Freez (Rogers, Ark.); host or cells: rat striatum, membranes (Sprague-Dawley; Long-Evans from Blue Spruce Farms gave essentially identical results)
Experimental: Adenosine Receptor Binding--A2 Receptor Affinity (RBA2)
Brains from 200-500 g mixed sex Sprague-Dawley rats were purchased from Pel-Freez (Rogers, Ark.). […] Brains were thawed and then kept on ice while the striata were dissected out. Striata were disrupted in 10 vol of ice-cold 50 mM Tris.HCl (pH 7.7 at 25° C., pH 8.26 at 5° C.) (Tris) for 30 seconds in a Polytron PT-10 (Brinkmann) at setting 5. The suspension was centrifuged at 50,000 xg for ten minutes, the supernatant discarded, the pellet resuspended in 10 vol ice-cold Tris as above, recentrifuged, resuspended at 1 g/5 ml, and stored in plastic vials at -70° C. […] When needed, tissue was thawed at room temperature, disrupted in a Polytron, and kept on ice until used. […]
Incubations were terminated by filtration through 2.4 cm GF/B filters under reduced pressure. […] Filters were put in scintillation vials, 8 ml of Formula 947 scintillation fluid added, and the vials left overnight, shaken, and counted in a liquid scintillation counter at 40% efficiency.
The IC50 was calculated by weighted nonlinear least squares curve-fitting to the mass-action equation. […]
Weighting factors were calculated under the assumption that the standard deviation was proportional to the predicted value of Y. Nonspecific binding was treated as a very large (infinite) concentration of drug in the computer analysis.

[2] = Mouse Activity and Screen Test Procedure (MAST): screen test failure (ST); conditions: lowest dose at which an A rating is achieved, screen test; i.p., mouse
Experimental: Nine unfasted Swiss-Webster male mice weighing 20-30 g are equally divided into three groups for each drug dose to be tested. That is, data for each dose level was generated by three separate groups of three mice each.
A minimum of three dose levels (10, 30, and 100 mg/kg) are tested for each drug. Treatments are administered intraperitoneally one hour prior to testing. All dosages are calculated as parent compound and given in volumes of 10 ml/kg. Compounds are dissolved or suspended in 0.2% Methocel. Control animals are injected with Methocel.
Testing: A two part testing procedure is started one hour postinjection. First, the screen test (ST) is performed (see Pharmac. Biochem. Behav. 6, 351-353, 1977). Briefly this test consists of placing mice on individual wire screens which are then rotated 180 degrees at the start of a 60 second observation period. The number of mice falling off the inverted screen is recorded.
Data: The data obtained from the screen test are expressed as percent of mice falling off the screen. Data derived from locomotor activity of drug treated mice are compared to the activity of vehicle treated animals and are expressed as percent inhibition of spontaneous locomotion. All percentages reported for inhibition of locomotion (LI) are based upon data accumulated for one hour. Both phases of testing are graded: A=60-100%; C=31-59%; and N=0-30%. An overall dose rating is obtained by the following criteria:
LAD refers to the lowest dose at which an A rating is achieved. […] The compounds are identified in the Examples.

[3] = molecular target: T2, adenosine A1 receptor (Rattus norvegicus, UniProt P25099); test: Adenosine Receptor Binding--A1 Receptor Affinity (RBA1), [3H]-CHA; parameters: species or system rat (male Long Evans)
T2 construct: Whole brain minus cerebellum and brainstem from male Long Evans rats; from tissue; host or cells: rat whole brain minus cerebellum and brainstem, membranes (male Long Evans)
T2 sequence (P25099 1-326): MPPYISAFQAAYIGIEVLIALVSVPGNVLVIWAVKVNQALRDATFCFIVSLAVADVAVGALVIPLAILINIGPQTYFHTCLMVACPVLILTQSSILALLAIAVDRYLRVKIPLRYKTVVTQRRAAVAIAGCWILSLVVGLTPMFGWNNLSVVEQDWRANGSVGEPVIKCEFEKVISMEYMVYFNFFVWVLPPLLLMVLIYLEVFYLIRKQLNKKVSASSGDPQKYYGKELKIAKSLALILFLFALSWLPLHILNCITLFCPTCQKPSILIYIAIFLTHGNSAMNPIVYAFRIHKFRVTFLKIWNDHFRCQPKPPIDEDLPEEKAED
Experimental: Adenosine Receptor Binding--A1 Receptor Affinity (RBA1)
Whole brain minus cerebellum and brainstem from male Long Evans rats (150-200 g) was homogenized in 30 volumes of ice-cold 0.05M Tris-HCl buffer pH 7.7 using a Brinkman Polytron PT-10, (setting number 6 for 20 seconds) and centrifuged for ten minutes at 20,000 xg (Sorvall RC-2), 4° C. The supernatant was discarded, and the pellet was resuspended and centrifuged as before. The pellet was resuspended in 20 ml Tris-HCl buffer containing two International Units/ml of adenosine deaminase (Sigma type III from calf intestinal mucosa), incubated at 37° C. for 30 minutes, then subsequently at 0° C. for ten minutes. […]
Tissue homogenate (10 mg/ml) was incubated in 0.05M Tris-HCl buffer pH 7.7 containing 1.0 nM [^3 H]-N^6 -cyclohexyladenosine (^3 H]-CHA) with or without test agents in triplicate for one hour at 25° C. […] The radio-labeled ligand retained on the filter was measured by liquid scintillation spectrophotometry after shaking the filters for one hour or longer on a mechanical shaker in 10 ml of Beckman Ready-Solv HP scintillation cocktail.
Nonspecific binding was defined as the binding which occurred in the presence of 1 mM theophylline. […] The Scatchard plot was calculated by linear regression of the line obtained by plotting the amount of radioligand bound [formula] […]

[4] = Antihypertensive evaluation (AHP3), aortic blood pressure and heart rate in conscious rats; format: in vivo; conditions: conscious rat
From the text: […] EVALUATION (AHP3)
This test procedure is described in the following paragraphs.
A Method for the Direct Monitoring of Aortic Blood Pressure and Heart Rate from Conscious Rats
The continuous monitoring of pulsatile blood pressure (BP) from unrestrained conscious rats surgically equipped with polyethylene cannulas was accomplished by means of a computer assisted data capture scheme (CADCS). The basic elements of the methodology are the cannulation procedure and the CADCS.
Cannulation Procedure: Rats were anesthetized with Telazol (1:1 tiletamine HCl and zolazepam HCl); 20-40 mg/kg IM and the descending aorta exposed via a midline incision. Cannulas fabricated from polyethylene tubing were inserted into the aorta via an undersized puncture hole below the renal arteries. The puncture hole was made by a 23G disposable needle with a section of the aorta clamped off above and below the puncture site. The cannulas, consisting of a PE100 (0.86 mm ID) body and a PE50 (0.5mm ID) tip, were attached to a trocar, inserted through the psoas muscle, and passed subcutaneously along the midline of the back and externalized between the ears. The cannulas were anchored to the psoas muscle and between the scalulae (3-0 green braided suture). The midline incision was closed in two steps (muscle first, skin second) using continuous over-and over sutures (4-0 chronic). Each rat was then given penicillin 30,000 units subcutaneously (Penicillin G Procaine Sterile Suspension).
The rats were fitted with a harness-spring-swivel assembly designed to protect the cannula and to provide the rat relative freedom of movement. The harnesses were fabricated from nylon hook and loop tape cemented to a metal plate to which spring wires (18-8 stainless steel), were attached to brass swivels. Each polyethylene cannula was channeled through a spring and connected through a swivel to a pressure transducer (Model P23Gb; Statham Instruments; Hato Rey, Puerto Rico) and an infusion pump (Sage model 234-7; Orion Research, Cambridge, MA) by means of PE100 tubing. While on test, each rat received a continuous slow infusion of heparinized saline solution (approximately […] or 40 units of heparin per 24 hour period) to prevent clot formation. Additional "flushes" of the cannula with heparinized saline were carried out when the aortic pulse pressure (systolic minus diastolic) was less than 25 mm Hg.
CADCS: The pulsatile blood pressure and heart rate of each of 32 rats was monitored every minute by means of two in-laboratory microcomputers communicating directly with a data concentrator computer. The data were first stored on the data concentrator disk and then transferred to a magnetic tape for analysis and report generation by the main research computer. The overall scheme involved modulating the primary signal from the pressure transducer, generating the primary data set of the one-minute values for systolic, diastolic, and mean blood pressures and heart rate by the in-lab microcomputer and the storage, analysis, and report generation by the main reserach computer.
The transducers were connected to analog signal conditioning modules. The modules provided a regulated excitation voltage for the transducers, amplification as required to interface the microprocessors and an active low pass filter to compensate for the pressure wave form distortion produced by the flexible, fluid filled, narrow cannula. The distortion was 22-26 Hz and this provided a reliable estimate of both systolic and diastolic blood pressure.
The microcomputers (one for each of two groups of 16 rats) were connected to the input components through the module interface units, an analog-to-digital converter for the pressure wave form signal and the digital inputs for the dose and event marker switches. The microcomputer controlled the sequential acquisition of data from the modular interface units through an internal synchronous time-of-day clock/time base generator. […]

[5] = Mouse Activity and Screen Test Procedure (MAST): inhibition of locomotion (LI); format: in vivo, mouse (Swiss-Webster)
Experimental: Treatments are administered intraperitoneally one hour prior to testing. […] Compounds are dissolved or suspended in 0.2% Methocel. Control animals are injected with Methocel.
Immediately following the screen test, the final phase of testing is initiated by placing each group of three mice in one actophotometer (Life Sciences, 22, 1067-1076, 1978). The actophotometer consists of a cylindrical chamber whose center is occupied by another cylinder which contains the illumination for six photocells located on the perimeter of the chamber. Six light-beam interruptions equal one count. Locomotor activity is recorded by computer at ten minute intervals for 60 minutes.
The compounds are identified in the Examples.

T1 sequence (P30543 whole entry): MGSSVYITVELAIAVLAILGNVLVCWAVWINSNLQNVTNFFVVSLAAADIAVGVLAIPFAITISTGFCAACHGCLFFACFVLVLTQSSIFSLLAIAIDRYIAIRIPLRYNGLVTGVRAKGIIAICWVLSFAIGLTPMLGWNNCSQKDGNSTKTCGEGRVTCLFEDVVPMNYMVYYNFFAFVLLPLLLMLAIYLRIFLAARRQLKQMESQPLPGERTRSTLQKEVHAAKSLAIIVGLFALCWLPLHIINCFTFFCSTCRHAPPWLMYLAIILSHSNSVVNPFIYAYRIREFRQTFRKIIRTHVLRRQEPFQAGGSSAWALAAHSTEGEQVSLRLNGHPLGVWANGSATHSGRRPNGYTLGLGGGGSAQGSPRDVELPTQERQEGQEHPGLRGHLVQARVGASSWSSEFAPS

Row | SMILES | IC50 [1] | MAST ST LAD [2] | IC50 [3] | HR.uparw. (change in heart rate) ([4]; 1 mg/kg) | Mμ.c..dwnarw. (change in MAP) ([4]; 1 mg/kg) | HR.uparw. (change in heart rate) ([4]; 3 mg/kg) | Mμ.c..dwnarw. (change in MAP) ([4]; 3 mg/kg) | HR.uparw. (change in heart rate) ([4]; 10 mg/kg) | Mμ.c..dwnarw. (change in MAP) ([4]; 10 mg/kg) | HR.uparw. (change in heart rate) ([4]; 30 mg/kg) | Mμ.c..dwnarw. (change in MAP) ([4]; 30 mg/kg) | Inhibition of mouse locomotor activity ([5]; 10 mg/kg i.p.) | Inhibition of mouse locomotor activity ([5]; 30 mg/kg i.p.) | Inhibition of mouse locomotor activity ([5]; 100 mg/kg i.p.)
1 | O=[N+]([O-])c1ccc(C(CNc2ncnc3c2ncn3[C@@H]2O[C@H](CO)[C@@H](O)[C@H]2O)c2ccc([N+](=O)[O-])cc2)cc1 [Example 20] | 559 nM | > 100 mg/kg | 229 nM |  |  |  |  |  |  |  |  |  |  | 
2 | OC[C@H]1O[C@@H](n2cnc3c(NCC(c4ccccc4)c4ccccc4)ncnc32)[C@H](O)[C@@H]1O [Example 1, N^6-(2,2-Diphenylethyl)adenosine] |  | > 100 mg/kg |  | < 20% | 16% | < 20% | 20% | < 20% | 20% | < 20% | 35% | 92% | 93% | 94%

From patent US4657898A, “N^6 -substituted adenosines and method of use” (Warner-Lambert Company, priority 1985, dated 1987)
